# Laboratory results taken from US20070027175A1, “Antineoplastic activities of ellipticine and its derivatives” (priority 2005, published 2007).
# “Also recorded” adds a separate entry of the source.
# Columns and labels:
# [1] = tested on: myeloma cell lines ARK, KMS11, RPMI 8226, and U266; experiment: In vitro screening of DTP compounds on myeloma cell lines (CellTiter-Glo); assay type: cell-based, human; parameters: effect on myeloma cell growth among tested ellipticine derivatives: dose or concentration left out as unconfirmed
# Description: Eight myeloma cell lines were contacted with the antineoplastic agents to be tested in ninety six well culture plates. […]
# Myeloma cell lines were maintained at >90% viability at 37° C. and 5% CO2. Cells were diluted to 20,000 cells/ml in fresh medium. A 50-μl aliquot of cell suspension was seeded in 96-well tissue culture plates to final cell counts of 1,000 cells/well. All compounds obtained from NCI's Developmental Therapeutics Program (DTP compounds) were dissolved in 100% dimethylsulfoxide (DMSO) (Sigma-Aldrich, St. Louis, Mo.) at 1 mg/ml and further diluted in fresh medium to 1 μg/ml. Each compound (50-μl aliquots) was distributed to a well containing 1,000 myeloma cells. Each plate included controls with addition of only medium or only DMSO (0.5% final concentration). All experiments were conducted in triplicate.
# Using CellTiter-Glo Luminescent Assay kit (Promega, Madison, Wis.) according to manufacturer's instructions, cell viability was assayed every 24 hours after addition of DTP compound for 5 days. Briefly, the CellTiter-Glo substrate was dissolved in buffer, and 100 μl was added to each well. […] The statistic sampling distribution for each compound per cell line was based on sample of n=15 measurements.
# Other ellipticine derivatives from the DTP (at 0.5 mM final concentration) were used to screen the same four myeloma cell lines.
# [2] = tested on: 12 myeloma cell lines (Ark, BW288, CAG, Delta47, DF15, JJN3, kms11, L363, opm2, RPMI8226, U266 and XG1); experiment: Comparative study with existing anti-myeloma drugs (CellTiter-Glo); assay type: cell-based, human; parameters: time to inhibition of cell proliferation: dose or concentration left out as unconfirmed
# From the text: The results obtained from these controls are pooled together in the figure (●). The dose of each compound was set […].
# Comparative study of NSC 338258 with existing anti-myeloma drugs Myeloma cell lines were exposed to NSC 338258 and existing anti myeloma drugs, Adriamycin® (Doxorubicin Hydrochloride) and Etoposide (VP-16-213) in ninety six well culture plates. The concentration of each compound was set […]. […] The cell growth was near zero in the following days (day 4 onwards; FIG. 6). It was also observed that 12 myeloma cell lines (Ark, BW288, CAG, Delta47, DF15, JJN3, kms11, L363, opm2, RPMI8226, U266 and XG1) responded to the same dosage (0.2 μM) of NSC 338258, VP-16-213 and Adriamycin in 5 days.
# [3] = tested on: Fetal bone mesenchymal cells; experiment: Selectivity: viability of normal fetal bone mesenchymal cells (CellTiter-Glo); assay type: cell-based, human; conditions: 0.01-1.0 mM; five days
# Description: The cell viability was tested every day for a period of five days. It was observed that these cells were not killed by the concentrations that were otherwise toxic to the myeloma cells.
# Fetal bone mesenchymal cells were contacted with NSC 338258 in ninety six well culture plates. The concentrations of NSC 338258 were set at 0.01, 0.03. 0.1, 0.3 and 1.0 mM (FIG. 7).
# [4] = tested on: non myeloma cancer cell lines HEL, HL-60, k562, MEG01, THP1, Hela, G401, Du145, sw480, sw620, saoS2, MG63; experiment: Overall cell growth inhibition, non myeloma cancer cell lines (CellTiter-Glo); assay type: cell-based; parameters: dose or concentration left out as unconfirmed; conditions: 5 days
# Description: Five non myeloma cancer cell lines, HEL (▮), HL-60 (▴), k562 (X), MEG01 ( ? ) and THP1 (▪) were exposed to NSC 388258 over a period of 5 days. The dose was set at 0.2 mM. […] The results obtained from these controls are pooled together in the figure (●).
# Seven non myeloma cancer cell lines, Hela (▮), G401 (▴), Du145 (X), sw480, (*) sw620 (▪), SaoS2 (I) and MG63 (−) were exposed to NSC 388258 over a period of 5 days. The dose was set at 0.2 mM. […] The results obtained from these controls are pooled together in the figure (●).
# To test the overall cell growth inhibition of NSC 338258, twelve non myeloma cancer cell lines, HEL, HL-60, k562, MEG01, THP1, Hela, G401, Du145, sw480, sw620, saoS2, and MG63, were exposed to the compound in 96 well cell culture plates for a period of five days.
# [5] = tested on: myeloma cell lines engrafted in SCID mice; assay type: in vivo; conditions: 25 and 50 mg/kg/day; Alzet osmotic pumps; 28 days; contemplated
# From the text: The present invention also examines novel therapeutic approaches for myeloma using experimental animal models. The anti-myeloma efficacy of 9-(Dimethylaminoethoxy)-ellipticine is examined using a panel of myeloma cell lines engrafted in severe combined immunodeficient (SCID) mice. The 3 cell lines are infected with a lentivirus-containing luciferase. Luciferase-expressing myeloma cells can be traced in live animals using the Xenogen IVIS 200 luminescence imaging system. Six to 8 weeks old SCID mice are subcutaneously injected with 10^7 myeloma cells. Tumor growth in live animals is monitored by measuring circulating level of monoclonal human immunoglobulins (hIg) in mice sera using ELISA (Yaccoby et al., 1998; Yang et al., 2002) and through imaging of tumor cells luminescence intensity. The tumor growth is detected within one week by ELISA and within 1-3 weeks by imaging.
# Upon establishment of myeloma growth as determined by both methods, mice are randomly divided into 3 groups; one control and 2 treated with different doses of 9-(Dimethylaminoethoxy)-ellipticine (8 mice/group for each cell line). Mice are implanted with Alzet osmotic pumps delivering 0.25 μl of drug solution per hour for 28 days. The daily doses are 25 and 50 mg/kg/day. Control animals have pumps loaded with buffer (PBS) only. At the experiments' end, mice are subjected to imaging analysis, bled and sacrificed. […]
# [6] = 50 mg/kg; intraperitoneal injection; P388 Leukemia-bearing CD2F1 mice; cited from earlier work
smiles,measurement,setting,value
"Cc1c2ccncc2c(C)c2c1[nH]c1ccc(OCCN(C)C)cc12 [NSC 338258, ellipticine, 9-dimethyl amino-ethoxy-]",inhibition of cell viability in four myeloma cell lines,"[1]; 0.5 mg/ml, every 24 hours over 5 days",most significantly inhibited cell viability; also recorded: significant anti-myeloma effect
same,effect on myeloma cell growth among tested ellipticine derivatives,[1]; four myeloma cell lines,best among the tested ellipticine derivatives
same,effective invitro dosage (cell growth inhibition),[1]; myeloma cell lines,0.2 µM
same,time to inhibition of cell proliferation,[2],≤ 24 h
same,response of 12 myeloma cell lines,"[2]; 0.2 μM, in 5 days",responded
same,killing of fetal bone derived normal mesenchymal cells,[3],not killed
same,activity against non-myeloma cell lines,[4],effective against non-myeloma cell lines
same,inhibition of myeloma cell growth in vivo,[5],effectively inhibits myeloma cell growth in vivo
same,animals survived EPED3 toxicity for at least 5 days,[6],five out of six
